# “And” between values parts separate entries of the source, which are not always exact repeats. Equal values may be shown once. Read-outs that look alike come from different tables or passages of the source.
# Columns and labels:
# [1] = In vitro release (dialysis bag method) and release kinetics modelling; type: physicochemical
# Description: The release medium was phosphate-buffered saline, prepared according to pharmacopeial standards and consisting of 0.02% KCl (w/v), 0.02% KH2PO4 (w/v), 0.116% Na2HPO4 (w/v), and 0.8% NaCl (w/v) (adjusted with 10 mM NaOH, pH 7.4) ([Anvisa, 2019]).
# The dialysis bags containing CUR-loaded NCs were immersed in the phosphate-buffered saline medium at 37 °C with horizontal shaking at 50 rpm.
# At predetermined intervals, 2 mL of the medium was withdrawn for analysis with a UV spectrophotometer (UV-1800, Shimadzu, Japan) at 427 nm. The experiments were conducted in triplicate (n = 3), with results reported as the percentage of drug released over time.
# Evaluated models included zero-order (Equation 1), monoexponential (Equation 2), bi-exponential (Equation 3), Weibull (Equation 4), and Higuchi (Equation 5). F=k0·t (1) F=100 ·1−e^−k1·t (2) F=100·1−Ae^−αt+Be^−βt (3) F=100·1−e^−t^β/α (4) F=kH·t^0.5 (5) where F is the percentage of drug released at time t (h), k 0 is the zero-order release constant (h^−1), k 1 is the first-order release constant (h^−1), A and B represent the fractions of drug distributed in different phases, and α and β (h^−1) are the specific kinetic rate constants. k H represents the Higuchi release constant.
# The drug release mechanism was further evaluated by fitting the data to the Peppas-Sahlin (Equation 6) and Korsmeyer-Peppas (Equation 7) models: F=k1· t^0.5+k2 ·t (6) F=kKP·t^n (7) where k 1 is the constant (h^−1) denoting the relative contribution of t ^0.5 dependent drug diffusion to drug release, k 2 is the constant (h^−1) denoting the relative contribution of t-dependent polymer relaxation to drug release, k KP is the kinetic constant of the Korsmeyer-Peppas model, and n is the diffusion exponent that indicates the drug transport mechanism.
# The release profiles were plotted and fitted using different in vitro release models. The results of the in vitro drug release study were evaluated based on dissolution efficiency and independent/dependent kinetic models. Model selection was performed considering the highest correlation coefficient (R ^2) and the Akaike Information Criterion (AIC) ([Vieira et al., 2016]).
# [2] = Stability of CUR in spiked S1 flies (whole-body fly homogenate supernatant); type: in vitro ADME, D. melanogaster
# Description: (§1) This homogenate was prepared by weighing 0.02 g of whole flies, followed by adding 600 µL of acetonitrile and homogenizing with an Ultra-Turrax (T10, GmbH, Germany) for 30 s at 28,800 rpm. The mixture was centrifuged at 14,000 rpm for 10 min at 4 °C to obtain the whole-body fly homogenate supernatant (S1). Subsequently, 90 µL of S1 was spiked with 10 µL of each calibration standard and 10 µL of the IS. Deproteinization was achieved by adding 1,000 µL of acetonitrile and 10 µL of 0.2% HCl. The mixtures were vortexed for 5 min, then centrifuged at 14,000 rpm for 10 min at 4 °C. The supernatant was separated, evaporated to dryness using a centrifugal vacuum concentrator at 45 °C for 60 min, and the residue reconstituted in 100 µL of mobile phase.
# (§2) Stability tests were performed under identical conditions for both matrices: room temperature for 6 h (22 °C ± 3 °C), in the autosampler for up to 24 h (22 °C ± 3 °C), after 60 days in a freezer (−80 °C ± 2 °C), and across three freeze-thaw cycles, with each thawing period at room temperature for approximately 2 h and refreezing for 12 h at −20 °C. For each species, three replicates at concentrations of 3 and 150 ng/mL were tested.
# (§3) Samples were deemed stable if the results fell within the acceptable limits of accuracy (±15% of nominal concentration) and precision (±15% CV). For the LLOQ, the CV was not to exceed 20% ([FDA, 2018]; [ICH, 2019]).
# [3] = parameters: method as in Yang et al., 2007; details: rats; 500 mg kg; ref Yang et al., 2007; cited from earlier work
# [4] = Fly whole-body CUR quantification, lipopolysaccharide-induced inflammation; type: in vivo, D. melanogaster; details: LPS 250 μg/mL in food medium + 37 ng/mL for 10 days
# Description: as §1
# [5] = Pharmacokinetic study in rodents (non-compartmental analysis); type: in vivo, Wistar rats
# Description: As described in our previous study, the NC-CUR was prepared via the interfacial deposition method of preformed polymers, ensuring the same final concentration ([Santos et al., 2021]). […] For the oral administration groups, blood sampling began 0.25 h post-gavage (Figure 1B). […] Pharmacokinetic parameters were calculated using non-compartmental analysis with PKanalix 2023R1 software (Lixoft, France). Plasma concentration-time profiles for each experimental group were analyzed individually.
# [6] = Stability of CUR in spiked rat plasma; type: in vitro ADME; details: Plasma rats
# Description: The rat plasma extraction was processed similarly to that of the flies, with 10 µL of each calibration standard sample mixed with 90 µL of blank rat plasma and 10 µL of the IS, followed by deproteinization with acetonitrile.
# as §2, §3
# [7] = tested on: healthy flies; parameters: method as in Fernandes et al., 2023; details: ref Fernandes et al., 2023; cited from earlier work
# [8] = ref Nakama et al., 2020; cited from earlier work
# [9] = parameters: method as in Wang et al., 2018; details: mice; intravenous administration of 20 mg kg; ref Wang et al., 2018; cited from earlier work
# [10] = Fly whole-body CUR quantification after 10-day dietary exposure, healthy flies; type: in vivo, D. melanogaster; details: both sexes, Drosophila melanogaster, whole-body homogenate, oral, 110 ng/mL in food medium for 10 days
# Description: as §1
# Adult healthy flies (1–3 days old) of both sexes were used, with each group consisting of 25 males and 25 females (n = 6 replicates/50 flies each). […] The medium was replaced every 3 days. The dosing and study design were based on our previous study ([Fernandes et al., 2023]).
# [11] = nominal 3 ng/mL, 6 h (bench-top)
# [12] = nominal 3 ng/mL, 24 h 6 h (bench-top)
# [13] = nominal 3 ng/mL, Freeze-thaw cycles
# [14] = nominal 150 ng/mL, 6 h (bench-top)
# [15] = nominal 150 ng/mL, 24 h (autosampler)
# [16] = nominal 150 ng/mL, 60 d (−80 °C)
# [17] = nominal 150 ng/mL, Freeze-thaw cycles
# [18] = male, Wistar, rat, plasma, iv, 2 mg/kg, Intravenous 2 mg/kg
# [19] = male, Wistar, rat, plasma, Intravenous 2 mg/kg
# [20] = male, Wistar, rat, plasma, Oral 6 mg/kg
structure (smiles),measurement,setting,value
"COc1cc(/C=C/C(=O)CC(=O)/C=C/c2ccc(O)c(OC)c2)ccc1O [CUR, Curcumin]",B,[1]; Biexponencial model,11.93 ± 2.50
same,α,[1]; Biexponencial model,0.15 ± 0.02 h⁻¹
same,β,[1]; Biexponencial model,0.17 ± 0.01 h⁻¹
same,A,"[1]; Biexponencial model (chosen model), PBS pH 7.4",78.99 ± 2.50
same,kH,[1]; Higuchi model,18.05 ± 0.07 h⁻¹
same,k,"[1]; Monoexponencial model, PBS pH 7.4",0.14 ± 0.00 h⁻¹
same,α,[1]; Weibull model,4.73 ± 0.06 h⁻¹
same,β,[1]; Weibull model,0.82 ± 0.01 h⁻¹
same,k 0,"[1]; Zero order model, PBS pH 7.4",2.57 ± 0.01 h⁻¹
same,drug released,[1]; at 6 h,56.09%
same,drug released,[1]; at 12 h,97.69% and ~100%
same,Accuracy,[2]; [11],84.45%
same,Mean ± SD,[2]; [11],2.74 ± 0.39 ng/mL
same,Accuracy,[2]; [12],114.19%
same,Mean ± SD,[2]; [12],3.23 ± 0.24 ng/mL
same,Accuracy,"[2]; nominal 3 ng/mL, 60 d (−80 °C)",103.03%
same,Mean ± SD,"[2]; nominal 3 ng/mL, 60 d (−80 °C)",3.09 ± 0.26 ng/mL
same,Accuracy,[2]; [13],106.81%
same,Mean ± SD,[2]; [13],3.20 ± 0.27 ng/mL
same,Accuracy,[2]; [14],94.59%
same,Mean ± SD,[2]; [14],144.26 ± 4.68 ng/mL
same,Accuracy,[2]; [15],89.72%
same,Mean ± SD,[2]; [15],142.32 ± 4.62 ng/mL
same,Accuracy,[2]; [16],98.39%
same,Mean ± SD,[2]; [16],147.59 ± 16.88 ng/mL
same,Accuracy,[2]; [17],95.99%
same,Mean ± SD,[2]; [17],143.99 ± 13.47 ng/mL
same,oral bioavailability (administered dose absorbed),[3],about 1%
same,CUR concentration in whole-body homogenates,[4],markedly reduced CUR levels
same,kel,[5]; Intravenous 2 mg/kg,0.75 h−¹
same,CL,"[5]; Intravenous 2 mg/kg, 2 mg/kg",7.71 L/h
same,t1/2,"[5]; Intravenous 2 mg/kg, 2 mg/kg",1.17 h
same,AUC0-∞,"[5]; Intravenous 2 mg/kg, male Wistar rats, n = 9, 2 mg/kg",100.41 ng·h/mL
same,kel,[5]; Oral 6 mg/kg,0.54 h−¹
same,clearance,[5]; [18],125 mL/min
same,half-life,[5]; [18],1.77 ± 0.45 h
same,AUC(0-inf),"[5]; male, Wistar, rat, plasma, iv, 2 mg/kg, Intravenous 2 mg/kg, male Wistar rats, n = 9",100 ± 24.4 ng·h/mL
same,half-life,"[5]; male, Wistar, rat, plasma, po, 6 mg/kg, Oral 6 mg/kg",1.7 h
same,AUC(0-inf),"[5]; male, Wistar, rat, plasma, po, 6 mg/kg, Oral 6 mg/kg, male Wistar rats, n = 12",25.6 ng·h/mL
same,Cmax,[5]; [19],231 ng/mL
same,MRT,[5]; [19],0.79 h
same,Vd,[5]; [19],12.8 L
same,Cmax,[5]; [20],8.04 ng/mL
same,MRT,[5]; [20],3 h
same,Tmax,[5]; [20],1.31 h
same,bioavailability,"[5]; male, Wistar, rat, plasma, Oral 6 mg/kg vs intravenous 2 mg/kg, read-out: Fabs (absolute bioavailability)",8.48%
same,Mean ± SD,[6]; [11],2.58 ± 0.04 ng/mL
same,Accuracy,[6]; [12],98.08%
same,Mean ± SD,[6]; [12],2.94 ± 0.19 ng/mL
same,Accuracy,"[6]; nominal 3 ng/mL, 60 d (−80 °C)",86.28%
same,Mean ± SD,"[6]; nominal 3 ng/mL, 60 d (−80 °C)",2.58 ± 0.05 ng/mL
same,Accuracy,[6]; [13],86.23%
same,Mean ± SD,[6]; [13],2.58 ± 0.04 ng/mL
same,Accuracy,[6]; [14],99.1%
same,Mean ± SD,[6]; [14],148.64 ± 1.35 ng/mL
same,Accuracy,[6]; [15],99.84%
same,Mean ± SD,[6]; [15],149.75 ± 0.92 ng/mL
same,Accuracy,[6]; [16],98.84%
same,Mean ± SD,[6]; [16],148.26 ± 0.17 ng/mL
same,Accuracy,[6]; [17],99.1%
same,Mean ± SD,[6]; [17],148.64 ± 1.35 ng/mL
same,concentrations producing increased survival and enhanced antioxidant defenses,[7],above 300 μM
same,Log P,[8],~3.2
same,half-life,[9],approximately 32.4 min
same,concentration at 10 days,[10],~75 ng/mL
